# Experiments:
# [1] = target: Myc proto-oncogene protein (Homo sapiens, UniProt P01106); test: Inhibition of human c-Myc assessed as reduction in c-Myc/Max/Ebox DNA complex formation using pre-formed complex of c-Myc and biotinylated DNA containing single Ebox-sequence followed by compound addition and further addition of his6-tagged c-Max and incubated for 2 hrs by AlphaScreen assay
# NCI-H2171 = test: Antiproliferative activity against human NCI-H2171 cells after 72 hrs by ATPlite assay; assay type: functional, cell-based; conditions: NCI-H2171, 72 h
# Myc proto-oncogene protein, sequence (P01106 whole entry): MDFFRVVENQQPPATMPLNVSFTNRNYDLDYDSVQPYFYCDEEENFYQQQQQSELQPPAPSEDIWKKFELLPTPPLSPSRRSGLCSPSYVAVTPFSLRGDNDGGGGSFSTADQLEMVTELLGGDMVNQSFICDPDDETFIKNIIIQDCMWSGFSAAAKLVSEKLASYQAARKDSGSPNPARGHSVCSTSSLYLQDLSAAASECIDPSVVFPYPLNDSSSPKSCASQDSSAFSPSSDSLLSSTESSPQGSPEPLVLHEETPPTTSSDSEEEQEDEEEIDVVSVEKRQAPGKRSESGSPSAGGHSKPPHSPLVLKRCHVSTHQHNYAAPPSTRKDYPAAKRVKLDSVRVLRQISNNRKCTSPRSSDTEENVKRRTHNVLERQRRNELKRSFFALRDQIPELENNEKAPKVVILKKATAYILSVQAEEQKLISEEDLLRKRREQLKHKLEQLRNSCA
SMILES,IC50 [1] [nM],IC50 (NCI-H2171) [nM]
COCCNCCC(=O)Nc1sc2c(c1-c1nc3c(N4CC(O)C4)cccc3s1)CCNC2,< 300,< 300
COCCNCCC(=O)Nc1sc2c(c1-c1nc3cc(-c4ccnn4C)ccc3s1)CCNC2,300 to 1000,< 300
CC(C)N1CCc2c(sc(NC(=O)CCNCc3ccccc3)c2-c2nc3ccccc3s2)C1,1000 to 10000,1000 to 10000
COCCNCCC(=O)Nc1sc2c(c1-c1nc3cc(-c4ccnc(C)c4)ccc3s1)CCNC2,300 to 1000,< 300
CC(C)NCCC(=O)Nc1sc2c(c1-c1nc3cc(C4CC4)ccc3s1)CCNC2,300 to 1000,< 300
COCCNCCC(=O)Nc1sc2c(c1-c1nc3ccccc3s1)CCN[C@@H]2C,< 300,< 300
COCCNCCC(=O)Nc1sc2c(c1-c1nc3cc(-c4ccc(N5CCOCC5)nc4)ccc3s1)CCNC2,300 to 1000,300 to 1000
CC(C)NCCC(=O)Nc1sc2c(c1-c1nc3cc(-c4cccnc4)ccc3s1)CCNC2,< 300,< 300
CCOc1ccc(-c2ccc3sc(-c4c(NC(=O)CCNCCOC)sc5c4CCNC5)nc3c2)cn1,300 to 1000,< 300
COCCNCCC(=O)Nc1sc2c(c1-c1nc3cc(-c4cnc(N)c(C(F)(F)F)c4)ccc3s1)CCNC2,1000 to 10000,< 300
CC(C)NCCC(=O)Nc1sc2c(c1-c1nc3ccccc3o1)CCNC2,300 to 1000,< 300
COCCNCCC(=O)Nc1sc2c(c1-c1nc3cc(-c4cnn(Cc5ccccc5)c4)ccc3s1)CCNC2,1000 to 10000,< 300
CCN(CC)CCC(=O)Nc1sc2c(c1-c1nc3ccccc3s1)CCNC2,300 to 1000,< 300
COCCNCCC(=O)Nc1sc2c(c1-c1nc3ccc(-c4cnc(N)nc4)cc3s1)CCNC2,300 to 1000,< 300
COCCNCCC(=O)Nc1sc2c(c1-c1nc3c(Nc4ccccc4)cccc3s1)CCNC2,> 10000,300 to 1000
COCCNCCC(=O)Nc1sc2c(c1-c1nc3cc(-c4c[nH]nc4C)ccc3s1)CCNC2,300 to 1000,300 to 1000
CC(C)NCCC(=O)Nc1sc2c(c1-c1nc3cc(S(=O)(=O)c4ccccc4)ccc3s1)CCNC2,300 to 1000,< 300
COCCNCCC(=O)Nc1sc2c(c1-c1nc3cc(-c4ccc(OC)nc4)ccc3s1)CCNC2,1000 to 10000,< 300
CC(C)NCCC(=O)Nc1sc2c(c1-c1nc3ccccc3s1)CC1CCC2N1 (stereo not given),1000 to 10000,< 300
COCCNCCC(=O)Nc1sc2c(c1-c1nc3ccc(-c4ccnn4C)cc3s1)CCNC2,1000 to 10000,< 300
COCCNCCC(=O)Nc1sc2c(c1-c1nc3cc(-c4cccc(NS(C)(=O)=O)c4)ccc3s1)CCNC2,1000 to 10000,< 300

SMILES,IC50 [1] [nM],IC50 (NCI-H2171) [nM]
CNCCC(=O)Nc1sc2c(c1-c1nc3ccccc3s1)CCN(C(C)C)C2,< 300,< 300
CC(=O)Nc1sc2c(c1-c1nc3cc(-c4ccncc4)ccc3s1)CCNC2,300 to 1000,< 300
CCc1cccc2sc(-c3c(NC(=O)CCNCCOC)sc4c3CCNC4)nc12,< 300,< 300
CSc1ccc2sc(-c3c(NC(=O)CCNC(C)C)sc4c3CCNC4)nc2c1,300 to 1000,< 300
COCCNCCC(=O)Nc1sc2c(c1-c1nc3ccc(-c4cccc(NS(C)(=O)=O)c4)cc3s1)CCNC2,300 to 1000,< 300
CC(=O)Nc1sc2c(c1-c1nc3ccc(-c4ccncc4)cc3s1)CCNC2,–,300 to 1000
"CC[C@H](C)NCCC(=O)Nc1sc2c(c1-c1nc3ccccc3s1)CC(C)NC2C (single isomer, unassigned; 621)",–,1000 to 10000
COCCNCCC(=O)Nc1sc2c(c1-c1nc3ccc(-c4ccc(OC(C)C)nc4)cc3s1)CCNC2,> 10000,–
CC(C)NCCC(=O)Nc1sc2c(c1-c1nc3cc(-c4nn[nH]n4)ccc3s1)CCNC2,< 300,–
CC(C)N1CCc2c(sc(NC(=O)CCNc3cccnc3)c2-c2nc3ccccc3s2)C1,1000 to 10000,–
CC(C)N1CCc2c(sc(NC(=O)CCNc3cccc(F)c3)c2-c2nc3ccccc3s2)C1,> 10000,–
COCCNCCC(=O)Nc1sc2c(c1-c1nc3cc(-c4ccc5c(=O)[nH]ccc5c4)ccc3s1)CCNC2,> 10000,–
COCCNCCC(=O)Nc1sc2c(c1-c1nc3ccc(-c4ccc(F)nc4F)cc3s1)CCNC2,> 10000,–
COCCNCCC(=O)Nc1sc2c(c1-c1nc3ccc(-c4ccnc5[nH]ccc45)cc3s1)CCNC2,> 10000,–
COCCNCCC(=O)Nc1sc2c(c1-c1nc3cc(-c4ccc(OC)nc4C)ccc3s1)CCNC2,> 10000,–
COCCNCCC(=O)Nc1sc2c(c1-c1nc3cc(-c4cccc5cccnc45)ccc3s1)CCNC2,> 10000,–
COCCNCCC(=O)Nc1sc2c(c1-c1nc3ccc(-c4cnc(N5CCOCC5)nc4)cc3s1)CCNC2,> 10000,–
COCCNCCC(=O)Nc1sc2c(c1-c1nc3cc(-c4ccc(O)c(F)c4)ccc3s1)CCNC2,> 10000,–
COCCNCCC(=O)Nc1sc2c(c1-c1nc3ccc(-c4cc5ccccc5[nH]4)cc3s1)CCNC2,> 10000,–
COc1cccc(-c2ccc3sc(-c4c(NC(=O)CCNC(C)C)sc5c4CCNC5)nc3c2)c1,1000 to 10000,–
CC(C)NCCC(=O)Nc1sc2c(c1-c1nc3cc(-c4ccccc4)ccc3s1)CCNC2,300 to 1000,–

SMILES,IC50 [1] [nM],IC50 (NCI-H2171) [nM]
COCCNCCC(=O)Nc1sc2c(c1-c1nc3cc(-c4ccc5c(c4)NC(=O)C5)ccc3s1)CCNC2,> 10000,–
COCCNCCC(=O)Nc1sc2c(c1-c1nc3cc(-c4cccc(C(=O)N5CCN(C)CC5)c4)ccc3s1)CCNC2,1000 to 10000,–
COCCNCCC(=O)Nc1sc2c(c1-c1nc3ccc(-c4cnc(OC)nc4)cc3s1)CCNC2,1000 to 10000,–
CC(C)NCCC(=O)Nc1sc2c(c1-c1nc3cc(C4=CCNCC4)ccc3s1)CCNC2,< 300,–
COCCNCCC(=O)Nc1sc2c(c1-c1nc3cc(-c4ccccc4NC(C)=O)ccc3s1)CCNC2,> 10000,–
"CC[C@H](C)NCCC(=O)Nc1sc2c(c1-c1nc3ccccc3s1)CC(C)NC2C (single isomer, unassigned; 620)",–,1000 to 10000
COCCNCCC(=O)Nc1sc2c(c1-c1nc3ccc(-c4cccnc4C)cc3s1)CCNC2,> 10000,–
COCCNCCC(=O)Nc1sc2c(c1-c1nc3ccc(-c4ccc5c(c4)NC(=O)C5)cc3s1)CCNC2,1000 to 10000,–
COCCNCCC(=O)Nc1sc2c(c1-c1nc3c(N4CCCC4)cccc3s1)CCNC2,< 300,–
COCCNCCC(=O)Nc1sc2c(c1-c1nc3ccc(-c4c(F)cccc4F)cc3s1)CCNC2,> 10000,–
CC(NCCC(=O)Nc1sc2c(c1-c1nc3ccccc3s1)CCN(C(C)C)C2)c1ccncc1 (stereo not given),1000 to 10000,–
COCCNCCC(=O)Nc1sc2c(c1-c1nc3ccc(-c4ccc(C(F)(F)F)nc4)cc3s1)CCNC2,> 10000,–
CC(C)N1CCc2c(sc(NC(=O)CCNc3cccc(O)c3)c2-c2nc3ccccc3s2)C1,1000 to 10000,–
COCCNCCC(=O)Nc1sc2c(c1-c1nc3ccc(-c4ccc(C(=O)OC)nc4)cc3s1)CCNC2,1000 to 10000,–
"CC[C@H](C)NCCC(=O)Nc1sc2c(c1-c1nc3ccccc3s1)CC(C)NC2C (single isomer, unassigned; 624)",–,< 300
COCCNCCC(=O)Nc1sc2c(c1-c1nc3cc(-c4cc(F)cnc4OC)ccc3s1)CCNC2,1000 to 10000,–
COCCNCCC(=O)Nc1sc2c(c1-c1nc3ccc(-c4cccc(C(=O)N5CCN(C)CC5)c4)cc3s1)CCNC2,300 to 1000,–
COCCNCCC(=O)Nc1sc2c(c1-c1nc3cc(-c4ccc5ncccc5c4)ccc3s1)CCNC2,> 10000,–
CC(=O)Nc1sc2c(c1-c1nc3ccccc3s1)C[C@@H](C)N[C@H]2C (relative stereo),–,300 to 10000
COCCNCCC(=O)Nc1sc2c(c1-c1nc3ccc(-c4cccnc4OC)cc3s1)CCNC2,1000 to 10000,–
O=C(CC1CCCN1)Nc1sc2c(c1-c1nc3ccccc3s1)CCNC2 (stereo not given),300 to 1000,–

SMILES,IC50 [1] [nM],IC50 (NCI-H2171) [nM]
COCCNCCC(=O)Nc1sc2c(c1-c1nc3ccc(-c4ccc5c(c4)OCO5)cc3s1)CCNC2,> 10000,–
COCCNCCC(=O)Nc1sc2c(c1-c1nc3ccc(-c4ccccc4S(C)(=O)=O)cc3s1)CCNC2,> 10000,–
COCCNCCC(=O)Nc1sc2c(c1-c1nc3cc(-c4c(C)n[nH]c4C)ccc3s1)CCNC2,1000 to 10000,–
COCCNCCC(=O)Nc1sc2c(c1-c1nc3cc(-c4cccc(C(F)(F)F)c4)ccc3s1)CCNC2,> 10000,–
COc1ccccc1-c1ccc2sc(-c3c(NC(=O)CCNC(C)C)sc4c3CCNC4)nc2c1,1000 to 10000,–
O=C(CC1COCCN1)Nc1sc2c(c1-c1nc3ccccc3s1)CCNC2 (stereo not given),300 to 1000,–
COCCNCCC(=O)Nc1sc2c(c1-c1nc3ccc(-c4cncc(C#N)c4)cc3s1)CCNC2,1000 to 10000,–
COCCNCCC(=O)Nc1sc2c(c1-c1nc3ccc(-c4cccc5cccnc45)cc3s1)CCNC2,> 10000,–
COCCNCCC(=O)Nc1sc2c(c1-c1nc3ccc(-c4ccc(OC)c(OC)c4)cc3s1)CCNC2,> 10000,–
COCCNCCC(=O)Nc1sc2c(c1-c1nc3ccc(-c4ccnc(C(F)(F)F)c4)cc3s1)CCNC2,> 10000,–
CC(C)NCCC(=O)Nc1sc2c(c1-c1nc3c(NC(=O)c4ccccc4)cccc3s1)CCNC2,1000 to 10000,–
COCCNCCC(=O)Nc1sc2c(c1-c1nc3ccc(-c4cnccc4OC)cc3s1)CCNC2,> 10000,–
COCCNCCC(=O)Nc1sc2c(c1-c1nc3ccc(-c4cnc(OC)c(OC)c4)cc3s1)CCNC2,1000 to 10000,–
COCCNCCC(=O)Nc1sc2c(c1-c1nc3cc(-c4cccc(C(=O)NCCN(C)C)c4)ccc3s1)CCNC2,300 to 1000,–
COCCNCCC(=O)Nc1sc2c(c1-c1nc3ccc(-c4cccnc4F)cc3s1)CCNC2,> 10000,–
COCCNCCC(=O)Nc1sc2c(c1-c1nc3cc(F)ccc3s1)CCN[C@H]2C,–,< 300
O=C(Nc1sc2c(c1-c1nc3ccccc3s1)CCNC2)C1CNC1,< 300,–
COCCNCCC(=O)Nc1sc2c(c1-c1nc3ccc(-c4ccc5ncccc5c4)cc3s1)CCNC2,> 10000,–
COCCNCCC(=O)Nc1sc2c(c1-c1nc3ccc(-c4cccc(C(F)(F)F)c4)cc3s1)CCNC2,> 10000,–
COCCNCCC(=O)Nc1sc2c(c1-c1nc3ccccc3s1)C[C@@H](C)NC2,–,< 300
COCCNCCC(=O)Nc1sc2c(c1-c1nc3ccc(-c4ccccc4NC(C)=O)cc3s1)CCNC2,> 10000,–

# From ChEMBL document CHEMBL4476874, “Compounds for the modulation of myc activity” (2018)
